In patent US20040141912A1, “Method for targeting chemical compounds to cells and pharmaceutical compositions used therein” (priority 2001, published 2004):
Entries after “also recorded” stand apart in the source; their conditions may differ.

Experiments:
Type in all cases: cell-based, human
Jurkat cells [1] = experiment: FACS analysis of DDC uptake by Jurkat cells induced to undergo apoptosis by anti-Fas antibody (PI co-staining)
Experimental: FIG. 3: Cultured Jurkat cells (A) were induced to undergo apoptosis by anti-Fas antibody (0.1 μg/ml) for three hours. Subsequently, both control cells (A and C) and apoptotic cells (B and D) were then incubated with 50 μM of DDC in the presence (C and D) and absence (A and B) of 1 μM of rottlerin, an inhibitor of PKCδ. Prior to FACS analysis, cells were also co-stained with propidium iodide (PI), a marker of membrane disintegration during late phases of cell death. In the shown dot plot, the left lower quadrant represents the healthy, non-stained fraction of cells. The right lower quadrant represents the newly formed population of cells in the early stages of apoptosis. These cells are PLS-activated cells, yet still maintaining membrane integrity and thus excluding PI. Cells binding both DDC and PI, i.e., cells in the late stages of apoptosis are represented in the right upper quadrant. The induction of apoptosis was associated with the emergence of a marked, distinct population of cells in the early stages of the apoptotic process, selectively binding DDC and occupying the right lower quadrant of the plot. […] UV axis denotes fluorescence intensity of DDC; FL2 axis denotes fluorescence intensity of PI.
FIG. 4: Jurkat cells were induced to undergo apoptosis by treatment with anti-Fas Ab (0.1 μg/ml) for three hours. Subsequently, cells were co-incubated with 50 μM of DDC and PI, in the presence of 1 mM of CaCl2, or under conditions of calcium deprivation (i.e., co-administration of the calcium chelators BAPTA and EGTA). Binding of DDC and PI was evaluated by FACS.
FIG. 4A: A and C: control cells; B and D: apoptotic cells; A and B: with Ca^2+; C and D: deprivation of Ca^2+. The lower left quadrant in each dot plot represents the healthy non-stained fraction of cells. The lower right quadrant represents the newly formed population of cells in the early stages of apoptosis, characterized by activation of PLS, but still maintaining membrane integrity. […] However, DDC binding to the cells in early apoptosis was markedly lost upon inhibition of PLS by calcium deprivation (B versus D).
Cultured Jurkat cells were grown as described in Example 1, and apoptosis was then triggered by treatment with anti-Fas Ab (0.1 μg/ml) for three hours, thus inducing […] activation in these cells.
In order to inhibit PLS activity in the apoptotic cells, rottlerin was used (Calbiochem, Germany). […] Subsequent to induction of apoptosis, cells were incubated for 40 minutes with rottlerin, at a concentration of 1 μM, were then subjected to treatment with DDC at a concentration of […] and immediately taken for FACS analysis (FIG. 3).
Inhibition of PLS activity in the apoptotic cells was also achieved by reduction of ambient Ca^2+ levels. Following induction of apoptosis, both control and apoptotic cells (1×10^7 cells) were subjected to Ca^2+-deprivation, by co-treatment with BAPTA (20 μM) and EGTA (1 mM) for 30 minutes. Cells were then treated with DDC (250 μM) and propidium iodide (PI). Binding of DDC to these Ca^2+-deprived cells and to control, Ca^2+-treated (1 mM) cells was analyzed by FACS, and the dot plot is shown in FIG. 4A. The lower left quadrant in each dot plot represents the healthy fraction of cells. The lower right quadrant represents the newly-formed population of cells in the early stages of apoptosis, still maintaining membrane integrity but characterized by activation of PLS. As shown, these cells manifest DDC binding while excluding PI. The upper right quadrant represents cells in the late stages of apoptosis, characterized by disintegration of the plasma membrane, thus unselectively permeable to compounds including PI, that is normally excluded from healthy cells.
Induction of apoptosis is a major pathway for the activation of PLS. […] For this purpose, apoptosis was triggered in cultured Jurkat cells by treatment with anti-Fas antibody. […]

Jurkat cells [2] = experiment: as above; remark: listed apart in the source
Jurkat cells [3] = experiment: FACS analysis of DDC uptake by Jurkat cells induced to undergo apoptosis by staurosporine
Experimental: FIG. 8: Jurkat cells were induced to undergo apoptosis by treatment with staurosporine. Subsequently, these cells were treated with DDC. The relative change in DDC uptake by cells in early versus late stages of apoptosis, following induction and inhibition of the PLS system is presented. Shown are the percents of positive early or late apoptotic events (mean values), calculated from 3 independent experiments, and wherein the events (either early or late) observed in apoptotic culture are regarded as 100%. Selective accumulation of DDC in early, but not in late apoptotic cells was detected as a result of staurosporine treatment. Ca^2+-deprivation or rottlerin treatment were performed as described in FIG. 1.
The selective uptake of DDC by apoptotic cells is not dependent upon the type of apoptotic trigger. […] Staurosporine acts in an apoptotic pathway which is largely distinct from that of anti-Fas Ab. Jurkat cells were grown as described in Example 1, and were subsequently treated for 4 hours with 1 μM of staurosporine (S4400; Sigma, USA). After induction of apoptosis, cells were treated with DDC (250 μM) for 5 minutes, and were then co-stained with PI and subjected to FACS analysis. Non-treated cells served as control.

Compound: CN(C)c1cccc2c(S(=O)(=O)NC(CSSCC(NS(=O)(=O)c3cccc4c(N(C)C)cccc34)C(=O)O)C(=O)O)cccc12 (centres unmarked) [DDC]
- Binding of DDC to cells in the late stages of apoptosis upon calcium deprivation (Jurkat cells [1]; PI-permeable cells, BAPTA + EGTA): no effect of PLS inhibition; also recorded: did not affect binding of DDC
- Cells in the early stages of apoptosis binding DDC (right lower quadrant) (Jurkat cells [1]; apoptotic cells (anti-Fas 0.1 μg/ml 3 h), absence of rottlerin): 46%
- Uptake of DDC by cells in the early stages of apoptosis (Jurkat cells [1]; apoptotic cells (anti-Fas), with Ca2+ 1 mM): 38.4%
- Uptake of DDC by cells in the early stages of apoptosis (Jurkat cells [1]; apoptotic cells, Ca2+-deprivation: BAPTA 20 μM + EGTA 1 mM, 30 min): 8.89%
- Cells in the early stages of apoptosis binding DDC (right lower quadrant) (Jurkat cells [1]; apoptotic cells, rottlerin 1 μM (PKCδ inhibitor), 40 min): 7.9%
- Uptake of DDC (early-apoptosis quadrant) (Jurkat cells [1]; control cells, with Ca2+ 1 mM): 4.11%
- DDC binding to cells in the late stages of apoptosis in response to rottlerin (Jurkat cells [1]; right upper quadrant (DDC and PI positive), rottlerin 1 μM): did not manifest alterations in DDC binding
- DDC binding by cells in early apoptosis with pan-caspase inhibitor (Jurkat cells [2]; anti-Fas 3 h + Z-VAD-fmk 50 μM, DDC 50 μM 5 min): abolished this DDC binding
- DDC binding by cells in early apoptosis (peak B) (Jurkat cells [2]; anti-Fas 3 h without Z-VAD-fmk, DDC 50 μM 5 min): marked DDC binding
- DDC binding to cells in the late stages of apoptosis (peak C) with pan-caspase inhibitor (Jurkat cells [2]; anti-Fas + Z-VAD-fmk 50 μM): no significant alterations
- Positive early apoptotic events for DDC (apoptotic culture regarded as 100%) (Jurkat cells [3]; control non-treated cells, mean of 3 experiments, DDC 250 μM 5 min): 36%
- Positive early apoptotic events for DDC (apoptotic culture regarded as 100%) (Jurkat cells [3]; staurosporine 1 μM 4 h apoptotic cells): 100%
- Positive early apoptotic events for DDC (apoptotic culture regarded as 100%) (Jurkat cells [3]; staurosporine-treated cells, Ca2+-deprivation): 14%
- Positive early apoptotic events for DDC (apoptotic culture regarded as 100%) (Jurkat cells [3]; staurosporine-treated cells, rottlerin treatment): 30%
